In PubChem BioAssay AID1918956 (Molecular Pharmacology Branch, DTP, NCI, 2023):
Where “and” joins values, the source holds several entries; their conditions need not be identical. Identical values can stand only once.

Tested on: OVCAR-5 complex spheroids, viability
Assay: Anticancer human tumor OVCAR-5 cell line growth inhibition;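 further: spheroids exposed to agents for seven days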;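 on viability, T/C: 100% = DMSO vehicle control wells viability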
Conditions: for viability, T/C: stronger effect = lower value; active means viability on the fitted dose curve at most 10% of control; inactive means the rest
Method in brief: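 Multicellular complex spheroids of tumor cells with human endothelial cells (HUVEC) and mesenchymal stem cells; the LSD1 inhibitor iadademstat was combined with standard-of-care or investigational agents. Top concentration at or near clinical Cmax, half-log dilutions; final DMSO ≤0.25%.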

[1] = curve of first compound, second compound 0.1 µM
[2] = curve of first compound, second compound 0.316 µM
[3] = curve of first compound, second compound 1 µM
[4] = curve of first compound, second compound 3.16 µM
[5] = curve of first compound, second compound 10 µM
[6] = second compound 0.1 µM, first compound 0.00949 µM
[7] = second compound 0.1 µM, first compound 0.03 µM
[8] = second compound 0.1 µM, first compound 0.0949 µM
[9] = second compound 0.1 µM, first compound 0.3 µM
[10] = second compound 0.316 µM, first compound 0.00949 µM
[11] = second compound 0.316 µM, first compound 0.03 µM
[12] = second compound 0.316 µM, first compound 0.0949 µM
[13] = second compound 0.316 µM, first compound 0.3 µM
[14] = second compound 1 µM, first compound 0.00949 µM
[15] = second compound 1 µM, first compound 0.03 µM
[16] = second compound 1 µM, first compound 0.0949 µM
[17] = second compound 1 µM, first compound 0.3 µM
[18] = second compound 3.16 µM, first compound 0.00949 µM
[19] = second compound 3.16 µM, first compound 0.03 µM
[20] = second compound 3.16 µM, first compound 0.0949 µM
[21] = second compound 3.16 µM, first compound 0.3 µM
[22] = second compound 10 µM, first compound 0.00949 µM
[23] = second compound 10 µM, first compound 0.03 µM
[24] = second compound 10 µM, first compound 0.0949 µM
[25] = second compound 10 µM, first compound 0.3 µM

Nc1ncn(C2CC(O)C(CO)S2)c(=O)n1 (configuration not stated) + NC1CC1c1ccc(-c2cccc(O)c2)cc1
inactive: viability, T/C (second compound 0.1 µM, first compound 0.000949 µM) 100% | viability, T/C (second compound 0.1 µM, first compound 0.003 µM) 110% | viability, T/C [6] 104% | viability, T/C [7] 95% | viability, T/C [8] 80.9% | viability, T/C [9] 71.2% | viability, T/C (second compound 0.316 µM, first compound 0.000949 µM) 107% | viability, T/C (second compound 0.316 µM, first compound 0.003 µM) 112% | viability, T/C [10] 108% | viability, T/C [11] 96.2% | viability, T/C [12] 88.5% | viability, T/C [13] 69.8% | viability, T/C (second compound 1 µM, first compound 0.000949 µM) 93.7% | viability, T/C (second compound 1 µM, first compound 0.003 µM) 86.6% | viability, T/C [14] 93.9% | viability, T/C [15] 92.4% | viability, T/C [16] 74.7% | viability, T/C [17] 61.7% | viability, T/C (second compound 3.16 µM, first compound 0.000949 µM) 95.8% | viability, T/C (second compound 3.16 µM, first compound 0.003 µM) 97.8% | viability, T/C [18] 91.3% | viability, T/C [19] 81.6% | viability, T/C [20] 79.8% | viability, T/C [21] 64.4% | viability, T/C (second compound 10 µM, first compound 0.000949 µM) 79% | viability, T/C (second compound 10 µM, first compound 0.003 µM) 93.6% | viability, T/C [22] 84.8% | viability, T/C [23] 78.1% | viability, T/C [24] 70% | viability, T/C [25] 60%
> 0.3 µM: IC50 [1] | IC50 [2] | IC50 [3] | IC50 [4] | IC50 [5]

CC1(C)CCC(CN2CCN(c3ccc(C(=O)NS(=O)(=O)c4ccc(NCC5CCOCC5)c([N+](=O)[O-])c4)c(Oc4cnc5[nH]ccc5c4)c3)CC2)=C(c2ccc(Cl)cc2)C1 + NC1CCC(NC2CC2c2ccccc2)CC1
6.3 µM: IC50 [4]
inactive: viability, T/C (second compound 0.1 µM, first compound 0.0316 µM) 116% | viability, T/C (second compound 0.1 µM, first compound 0.1 µM) 97.5% | viability, T/C (second compound 0.1 µM, first compound 0.316 µM) 105% | viability, T/C (second compound 0.1 µM, first compound 1 µM) 98.9% | viability, T/C (second compound 0.1 µM, first compound 3.16 µM) 111% | viability, T/C (second compound 0.1 µM, first compound 10 µM) 27.1% | viability, T/C (second compound 0.316 µM, first compound 0.0316 µM) 108% | viability, T/C (second compound 0.316 µM, first compound 0.1 µM) 97.6% | viability, T/C (second compound 0.316 µM, first compound 0.316 µM) 98.4% | viability, T/C (second compound 0.316 µM, first compound 1 µM) 108% | viability, T/C (second compound 0.316 µM, first compound 3.16 µM) 111% | viability, T/C (second compound 0.316 µM, first compound 10 µM) 26.2% | viability, T/C (second compound 1 µM, first compound 0.0316 µM) 97.6% | viability, T/C (second compound 1 µM, first compound 0.1 µM) 91.5% | viability, T/C (second compound 1 µM, first compound 0.316 µM) 92.3% | viability, T/C (second compound 1 µM, first compound 1 µM) 101% | viability, T/C (second compound 1 µM, first compound 3.16 µM) 96.1% | viability, T/C (second compound 1 µM, first compound 10 µM) 27% | viability, T/C (second compound 3.16 µM, first compound 0.0316 µM) 99.9% | viability, T/C (second compound 3.16 µM, first compound 0.1 µM) 106% | viability, T/C (second compound 3.16 µM, first compound 0.316 µM) 105% | viability, T/C (second compound 3.16 µM, first compound 1 µM) 104% | viability, T/C (second compound 3.16 µM, first compound 3.16 µM) 88.8% | viability, T/C (second compound 3.16 µM, first compound 10 µM) 23.8% | viability, T/C (second compound 10 µM, first compound 0.0316 µM) 90.7% | viability, T/C (second compound 10 µM, first compound 0.1 µM) 93.3% | viability, T/C (second compound 10 µM, first compound 0.316 µM) 78.4% | viability, T/C (second compound 10 µM, first compound 1 µM) 91.7% | viability, T/C (second compound 10 µM, first compound 3.16 µM) 72.8% | viability, T/C (second compound 10 µM, first compound 10 µM) 24.9%
7.06 µM: IC50 [2]
6.81 µM: IC50 [3]
7.15 µM: IC50 [1]
5.48 µM: IC50 [5]

Nc1ccccc1NC(=O)c1ccc(CNC(=O)OCc2cccnc2)cc1
active: viability, T/C (compound 3 µM) 8.2% and 8.35%
0.195 µM and 0.153 µM: IC50 (curve of compound)
inactive: viability, T/C (compound 0.00949 µM) 102% and 86.1% | viability, T/C (compound 0.03 µM) 81.6% and 80.2% | viability, T/C (compound 0.0949 µM) 63.8% and 59.6% | viability, T/C (compound 0.3 µM) 41.9% and 34.8% | viability, T/C (compound 0.949 µM) 23.9% and 19.3%

CCN(c1cc(-c2ccc(CN3CCOCC3)cc2)cc(C(=O)NCc2c(C)cc(C)[nH]c2=O)c1C)C1CCOCC1 + NC1CC1c1ccc(-c2cccc(O)c2)cc1
> 3 µM: IC50 [1] | IC50 [2] | IC50 [3] | IC50 [4] | IC50 [5]
inactive: viability, T/C [6] 87.6% | viability, T/C [7] 98.8% | viability, T/C [8] 106% | viability, T/C [9] 97% | viability, T/C (second compound 0.1 µM, first compound 0.949 µM) 107% | viability, T/C (second compound 0.1 µM, first compound 3 µM) 92.6% | viability, T/C [10] 102% | viability, T/C [11] 108% | viability, T/C [12] 99.3% | viability, T/C [13] 94.8% | viability, T/C (second compound 0.316 µM, first compound 0.949 µM) 104% | viability, T/C (second compound 0.316 µM, first compound 3 µM) 102% | viability, T/C [14] 91.5% | viability, T/C [15] 84.4% | viability, T/C [16] 94.3% | viability, T/C [17] 103% | viability, T/C (second compound 1 µM, first compound 0.949 µM) 91.9% | viability, T/C (second compound 1 µM, first compound 3 µM) 98.5% | viability, T/C [18] 88.8% | viability, T/C [19] 87.7% | viability, T/C [20] 90.4% | viability, T/C [21] 90.9% | viability, T/C (second compound 3.16 µM, first compound 0.949 µM) 90.6% | viability, T/C (second compound 3.16 µM, first compound 3 µM) 92.9% | viability, T/C [22] 86.7% | viability, T/C [23] 91.9% | viability, T/C [24] 85.5% | viability, T/C [25] 93.4% | viability, T/C (second compound 10 µM, first compound 0.949 µM) 95.5% | viability, T/C (second compound 10 µM, first compound 3 µM) 91.1%
